Measurements taken from US9320739B2 (AMBIT BIOSCIENCES CORPORATION, priority 2008, dated 2016).
Where two headings read alike, the source gives them in different places.

Test system: panel of 290 distinct kinases (321 in the larger panel), excluding mutant variants
[1] = no asterisk: panel of 290 distinct kinases

Procedure: Competition binding assays used herein were developed, validated and performed as described in Fabian et al., Nature Biotechnology 2005, 23, 329-336. […] The liganded beads were blocked with excess biotin and washed with blocking buffer (SeaBlock (Pierce), 1% BSA, 0.05% Tween 20, 1 mM DTT) to remove unbound ligand and to reduce non-specific binding. […] Test compounds were prepared as 100× stocks in DMSO and rapidly diluted into the aqueous environment. DMSO was added to control assays lacking a test compound. Primary screen interactions were performed in polypropylene 384-well plates in a final volume of 34 μL, while Kd determinations were performed in polystyrene 96-well plates in a final volume of 135 pt. […] The kinase concentration in the eluates was measured by quantitative PCR. Each kinase was tested individually against each compound. Kds were determined using eleven serial threefold dilutions. A selectivity score, which is a quantitative measure of selectivity of a compound against a panel of enzymes, may be calculated for a compound by dividing the number of enzymes for which a compound meets a set criteria, (for example, a binding constant of 100 nM or less), by the total number of enzymes tested. […] (Note, for those compounds tested in a larger kinase panel, as indicated by an asterisk (*) next to the S35 score, the divisor is 321 (i.e. the larger panel contains 321 distinct kinases, excluding mutant variants.)).

| Compound | S35 [1] | other results |
| --- | --- | --- |
| COc1cc2ncnc(Oc3cccc(NC(=O)Nc4cc(C(C)(C)CO)no4)c3)c2cc1OC [Ex 255, 1-(3-(6,7-dimethoxyquinazolin-4-yloxy)phenyl)-3-(3-(1-hydroxy-2-methylpropan-2-yl)isoxazol-5-yl)urea] | C (0.20 < C ≦ 0.40) | – |
| COc1cc2ncnc(Sc3cccc(NC(=O)Nc4cc(C(C)(C)C(F)(F)F)nn4-c4ccccc4)c3)c2cc1OC [Ex 307, 1-(3-(6,7-dimethoxyquinazolin-4-ylthio)phenyl)-3-(1-phenyl-3-(1,1,1-trifluoro-2-methylpropan-2-yl)-1H-pyrazol-5-yl)urea] | D (D > 0.40) | – |
| COc1cc2ncnc(Sc3cccc(NC(=O)Nc4cc(C(C)(C)C)nn4C(C)C)c3)c2cc1OC [Ex 335, 1-(3-tert-butyl-1-isopropyl-1H-pyrazol-5-yl)-3-(3-(6,7-dimethoxyquinazolin-4-ylthio)phenyl)urea] | C (0.20 < C ≦ 0.40) | – |
| COc1cc2ncnc(Oc3cccc(NC(=O)Nc4cc(C(C)(C)C)nn4-c4cncc(F)c4)c3)c2cc1OC [Ex 326, 1-(3-tert-butyl-1-(5-fluoropyridin-3-yl)-1H-pyrazol-5-yl)-3-(3-(6,7-dimethoxyquinazolin-4-yloxy)phenyl)urea] | D (D > 0.40) | – |
| COc1cc(OC2CCOCC2)c2c(Sc3cccc(NC(=O)Nc4cc(C(C)(C)C)on4)c3)ncnc2c1 | – | S35 (no asterisk: panel of 290 distinct kinases, fraction of kinases inhibited 65% or greater): C (0.20 < C ≦ 0.40) |
| COc1cc2ncnc(Oc3cccc(NC(=O)Nc4cc(C(C)(C)C)nn4-c4ccc(C)nc4)c3)c2cc1OC [Ex 312, 1-(3-tert-butyl-1-(6-methylpyridin-3-yl)-1H-pyrazol-5-yl)-3-(3-(6,7-dimethoxyquinazolin-4-yloxy)phenyl)urea] | D (D > 0.40) | – |
| COc1ccc(-n2nc(C(C)C)cc2NC(=O)Nc2cccc(Sc3ncnc4cc(OC)c(OC)cc34)c2)cc1 [Ex 349, 1-(3-(6,7-dimethoxyquinazolin-4-ylthio)phenyl)-3-(3-isopropyl-1-(4-methoxyphenyl)-1H-pyrazol-5-yl)urea] | C (0.20 < C ≦ 0.40) | – |
| COc1cc2ncnc(Oc3cccc(NC(=O)Nc4cc(C(F)(F)F)nn4-c4cccc(C)c4)c3)c2cc1OC [Ex 338, 1-(3-(6,7-dimethoxyquinazolin-4-yloxy)phenyl)-3-(1-m-tolyl-3-(trifluoromethyl)-1H-pyrazol-5-yl)urea] | C (0.20 < C ≦ 0.40) | – |
| COc1ccc(-n2nc(C(C)C)cc2NC(=O)Nc2cccc(Oc3ncnc4cc(OC)c(OC)cc34)c2)cc1 [Ex 348, 1-(3-(6,7-dimethoxyquinazolin-4-yloxy)phenyl)-3-(3-isopropyl-1-(4-methoxyphenyl)-1H-pyrazol-5-yl)urea] | D (D > 0.40) | – |
| COc1cc2ncnc(Oc3cccc(NC(=O)Nc4cc(C(C)C)nn4-c4cccnc4)c3)c2cc1OC [Ex 350, 1-(3-(6,7-dimethoxyquinazolin-4-yloxy)phenyl)-3-(3-isopropyl-1-(pyridin-3-yl)-1H-pyrazol-5-yl)urea] | D (D > 0.40) | – |
| COc1cc2ncnc(Sc3cccc(NC(=O)Nc4cc(C(C)(C)C)nn4-c4ccccc4C)c3)c2cc1OC [Ex 343, 1-(3-tert-butyl-1-o-tolyl-1H-pyrazol-5-yl)-3-(3-(6,7-dimethoxyquinazolin-4-ylthio)phenyl)urea] | C (0.20 < C ≦ 0.40) | – |
| COc1cc2ncnc(Oc3cccc(NC(=O)Nc4cc(C(C)C)nn4-c4cncc(F)c4)c3)c2cc1OC [Ex 314, 1-(3-(6,7-dimethoxyquinazolin-4-yloxy)phenyl)-3-(1-(5-fluoropyridin-3-yl)-3-isopropyl-1H-pyrazol-5-yl)urea] | D (D > 0.40) | – |
| COc1cc2ncnc(Oc3cccc(NC(=O)Nc4cc(C(C)(C)C)nn4CC(C)C)c3)c2cc1OC [Ex 332, 1-(3-tert-butyl-1-isobutyl-1H-pyrazol-5-yl)-3-(3-(6,7-dimethoxyquinazolin-4-yloxy)phenyl)urea] | C (0.20 < C ≦ 0.40) | – |
| CCc1cc(NC(=O)Nc2cccc(Oc3ncnc4cc(OC)c(OC)cc34)c2)n(-c2ccccc2)n1 [Ex 352, 1-(3-(6,7-dimethoxyquinazolin-4-yloxy)phenyl)-3-(3-ethyl-1-phenyl-1H-pyrazol-5-yl)urea] | C (0.20 < C ≦ 0.40) | – |
| COc1cc2ncnc(Sc3cccc(NC(=O)Nc4cc(C(C)(C)C)nn4-c4cncc(F)c4)c3)c2cc1OC [Ex 327, 1-(3-tert-butyl-1-(5-fluoropyridin-3-yl)-1H-pyrazol-5-yl)-3-(3-(6,7-dimethoxyquinazolin-4-ylthio)phenyl)urea] | D (D > 0.40) | – |
| CCn1nc(C(C)(C)C)cc1NC(=O)Nc1cccc(Sc2ncnc3cc(OC)c(OC)cc23)c1 [Ex 321, 1-(3-tert-butyl-1-ethyl-1H-pyrazol-5-yl)-3-(3-(6,7-dimethoxyquinazolin-4-ylthio)phenyl)urea] | C (0.20 < C ≦ 0.40) | – |
| COc1cc2ncnc(Oc3cccc(NC(=O)Nc4cc(C(C)(C)C)nn4-c4ccc(=O)[nH]c4)c3)c2cc1OC [Ex 317, 1-(3-tert-butyl-1-(6-oxo-1,6-dihydropyridin-3-yl)-1H-pyrazol-5-yl)-3-(3-(6,7-dimethoxyquinazolin-4-yloxy)phenyl)urea] | D (D > 0.40) | – |
| COc1cc2ncnc(Sc3cccc(NC(=O)Nc4cc(C(C)(C)C)nn4-c4ccc(C#N)cc4)c3)c2cc1OC [Ex 329, 1-(3-tert-butyl-1-(4-cyanophenyl)-1H-pyrazol-5-yl)-3-(3-(6,7-dimethoxyquinazolin-4-ylthio)phenyl)urea] | D (D > 0.40) | – |
| COc1cc2ncnc(Sc3cccc(NC(=O)Nc4cc(C(C)C)nn4-c4cccnc4)c3)c2cc1OC [Ex 351, 1-(3-(6,7-dimethoxyquinazolin-4-ylthio)phenyl)-3-(3-isopropyl-1-(pyridin-3-yl)-1H-pyrazol-5-yl)urea] | C (0.20 < C ≦ 0.40) | – |
| COc1cc2ncnc(Oc3cccc(NC(=O)Nc4cc(C(C)(C)C)nn4-c4ccccn4)c3)c2cc1OC [Ex 344, 1-(3-tert-Butyl-1-(pyridin-2-yl)-1H-pyrazol-5-yl)-3-(3-(6,7-dimethoxyquinazolin-4-yloxy)phenyl)urea] | C (0.20 < C ≦ 0.40) | – |
| COc1cc2ncnc(Oc3cccc(NC(=O)Nc4cc(C(C)(C)C#N)nn4-c4ccccc4)c3)c2cc1OC [Ex 308, 1-(3-(2-cyanopropan-2-yl)-1-phenyl-1H-pyrazol-5-yl)-3-(3-(6,7-dimethoxyquinazolin-4-yloxy)phenyl)urea] | D (D > 0.40) | – |
| COc1ccc(-n2nc(C(C)(F)F)cc2NC(=O)Nc2cccc(Oc3ncnc4cc(OC)c(OC)cc34)c2)cc1 [Ex 315, 1-(3-(1,1-difluoroethyl)-1-(4-methoxyphenyl)-1H-pyrazol-5-yl)-3-(3-(6,7-dimethoxyquinazolin-4-yloxy)phenyl)urea] | D (D > 0.40) | – |
| COc1cc2ncnc(Sc3cccc(NC(=O)Nc4cc(C(C)(C)C)nn4-c4cccnc4)c3)c2cc1OC [Ex 323, 1-(3-tert-butyl-1-(pyridin-3-yl)-1H-pyrazol-5-yl)-3-(3-(6,7-dimethoxyquinazolin-4-ylthio)phenyl)urea] | D (D > 0.40) | – |
| COc1cc2ncnc(Sc3cccc(NC(=O)Nc4cc(C(F)(F)F)nn4-c4ccc(C)cc4)c3)c2cc1OC [Ex 199, 1-[3-(6,7-dimethoxyquinazolin-4-ylthio)phenyl]-3-[1-p-tolyl-3-(trifluoromethyl)-1H-pyrazol-5-yl]urea] | – | S35 (asterisk: panel of 321 distinct kinases, fraction of kinases inhibited 65% or greater): D* (D > 0.40) |
